PMC8072580, “Predicting Pharmacokinetic Properties of Potential Anticancer Agents via Their Chromatographic Behavior on Different Reversed Phase Materials” (International Journal of Molecular Sciences, 2021)
Where two headings read alike, the source gives them in different places.

How the values were obtained:
[1] = Micellar liquid chromatography (MLC), ODS-2 column, Brij 35 effluent: chromatographic lipophilicity; assay type: physicochemical; settings: pH 7.4, ODS-2 column, 25 °C
Excerpt: There are several theories that describe the effect of the concentration of the surfactant in the effluent on the retention of the solute in MLC [23]. The following Foley’s equation is best known in lipophilicity studies:(2) 1/k=1/km+KAM/km[M] where [M] is the total concentration of the surfactant in the mobile phase minus CMC; KAM is the constant that describes solute-micelle binding; and km is the solute retention parameter at the micellar concentration of zero, i.e., when the concentration of the surfactant monomer is equal to CMC. The KAM and km parameters can be evaluated from the slope and intercept of the experimental 1/k vs. [M] relationships.
Equation (2) describes a linear dependence between decreasing retention and increasing micelle concentration. This equation is valid for aqueous solutions of surfactant or mobile phases with the same concentrations of the organic modifier. The micellar retention parameter, log km, is considered analogous to the log kw parameter evaluated in RPLC. According to the information presented above, this parameter is considered to be a lipophilicity descriptor, and Equation (2) is a simple way to indirectly determine the lipophilic properties of compounds. It is postulated that retention in micellar chromatography depends on hydrophobic (lipophilic), electronic, and steric features of the compounds in a similar way as has been noted concerning pharmacokinetic phenomena. The additional similarity results from the fact that the phospholipids, cholesterol, fatty acids, and triglycerides included in the extracellular and intracellular fluids also form micelles with proteins.
(§1) In our investigations, the micellar retention factors were used to calculate the log km parameters using Equation (2) (Table 2). For all of the compounds 1-19, the relationships of 1/k vs. [M] were obtained with very good linearity, confirming that Foley’s equation correctly describes the effect of the concentration of the surfactant in the effluent on the retention of the solute. In our studies, the micellar log km parameters for three pharmacologically active sets of compounds 1-6, 7-14, and 15-19 and the log k factors for solutes 15-19 obtained on IAM and end-capped ODS stationary phases were determined experimentally. All these retention factors, together with the log kw values for compounds 1-14 obtained in our earlier investigations on IAM and end-capped ODS stationary phases, were used as lipophilicity descriptors in the QSARs methodology to predict the pharmacokinetic descriptors of the compounds that were tested.
(§2) Shimadzu Vp (Shimadzu, Izabelin, Polska) liquid chromatographic system was used in HPLC measurements. It was equipped with an LC 10AT pump, SPD 10A UV–Vis detector, SCL 10A system controller, CTO-10 AS chromatographic oven, and Rheodyne injector valve with a 20 μL loop. As the stationary phases, 3 different revered-phase materials were applied: Spherisorb ODS-2 column, 125 × 4 mm i.d., 5 μm (Merck, Lublin, Poland), Regis IAM.PC.DD2 column, 100 × 4.6 mm i.d., 10 μm (Morton Grove, Illinois, USA), and Purosphere RP-18e column, 125 × 4 mm i.d., 5 μm (Merck, Lublin, Poland).
In the MLC technique with an ODS-2 column, buffered Brij 35 mixtures (0.15; 0.125, 0.10, and 0.075 mol/L) with 7% (v/v) addition of isopropanol were used as mobile phases. The buffer was prepared from 0.01 mol/L solutions of Na2HPO4 and citric acid, and the pH 7.4 value was fixed before mixing with an organic modifier. The flow rate was 1 mL/min. Buffered acetonitrile mixtures were used as effluents with the IAM column. Acetonitrile concentration, expressed as a volume fraction, was changed in the range of 0.2–0.5, with the constant step of 0.1. The flow rate was 1.3 mL/min. Acetonitrile concentration was changed in the range of 0.3–0.6 with the RP-18e column, with the constant step of 0.1 and flow rate of 0.1 mL/min. As solutes tested there were used 19 newly designed structurally related compounds. […]

[2] = set-up: method as in PMID 31864156; settings: IAM.PC.DD2 column, buffered acetonitrile; cited from earlier work
[3] = set-up: method as in PMID 31864156; settings: end-capped ODS column, aqueous acetonitrile; cited from earlier work
Danio rerio = test system: Danio rerio; set-up: method as in PMID 33390035; settings: cited from earlier work
human cancer cells = test system: human cancer cells; set-up: method as in PMID 31864156, PMID 16545495, PMID 25528370; settings: cited from earlier work
[4] = Immobilized artificial membrane (IAM.PC.DD2) chromatography: log kw,IAM; assay type: physicochemical; settings: IAM.PC.DD2 column, buffered acetonitrile 0.2-0.5, 25 °C
Excerpt: as §1, §2
(§3) In the MLC technique with an ODS-2 column, buffered Brij 35 mixtures (0.15; 0.125, 0.10, and 0.075 mol/L) with 7% (v/v) addition of isopropanol were used as mobile phases. The buffer was prepared from 0.01 mol/L solutions of Na2HPO4 and citric acid, and the pH 7.4 value was fixed before mixing with an organic modifier. The flow rate was 1 mL/min. Buffered acetonitrile mixtures were used as effluents with the IAM column. Acetonitrile concentration, expressed as a volume fraction, was changed in the range of 0.2–0.5, with the constant step of 0.1. The flow rate was 1.3 mL/min. Acetonitrile concentration was changed in the range of 0.3–0.6 with the RP-18e column, with the constant step of 0.1 and flow rate of 0.1 mL/min. As solutes tested there were used 19 newly designed structurally related compounds. Samples were dissolved in acetonitrile c.a. 0.005 mg/mL. The compounds were detected under UV light at λmax 254 nm. All measurements were carried out at a constant temperature (25 °C). The dead time values were measured from non-retained compound (e.g., sodium chloride) peaks. All reported k values are the average of at least 3 independent measurements.

[5] = End-capped ODS (RP-18e) column chromatography: log kw,ODS; assay type: physicochemical; settings: acetonitrile 0.3-0.6, 25 °C
Excerpt: as §1, §2, §3

[6] = 0.075 M Brij 35, 7% isopropanol
[7] = 0.125 M Brij 35, 7% isopropanol

| SMILES | k (MLC retention factor) [1, 6] | k (MLC retention factor) ([1]; 0.1 M Brij 35, 7% isopropanol) | k (MLC retention factor) [1, 7] | k (MLC retention factor) ([1]; 0.15 M Brij 35, 7% isopropanol) | log kw,IAM [2] | log kw,ODS [3] | safety for early life stages of Danio rerio compared with pemetrexed (Danio rerio) | antiproliferative effects in cancer cells compared with normal cells (human cancer cells) | log kw,IAM [4] | log kw,ODS [5] |
| --- | --- | --- | --- | --- | --- | --- | --- | --- | --- | --- |
| CC(C)c1nnc2n(c1=O)CCN2c1ccccc1 [Compound 1] | 13.73 | 12.03 | 10.47 | 10.53 | 0.76 [19] | 1.59 [19] |  |  |  |  |
| Cc1ccc(N2CCn3c2nnc(C(C)C)c3=O)cc1 [Compound 2] | 25.51 | 21.45 | 18.25 | 17.34 | 1.05 [19] | 2.01 [19] |  |  |  |  |
| CC(C)c1nnc2n(c1=O)CCN2c1ccccc1Cl [Compound 3] | 8.98 | 8.18 | 7.46 | 7.20 | 0.65 [19] | 1.42 [19] |  |  |  |  |
| CC(C)c1nnc2n(c1=O)CCN2c1cccc(Cl)c1 [Compound 4] | 39.84 | 31.65 | 24.39 | 22.52 | 1.49 [19] | 2.38 [19] |  |  |  |  |
| CC(C)c1nnc2n(c1=O)CCN2c1ccc(Cl)cc1 [Compound 5] | 41.53 | 33.76 | 26.18 | 24.10 | 1.39 [19] | 2.32 [19] |  |  |  |  |
| CC(C)c1nnc2n(c1=O)CCN2c1ccc(Cl)c(Cl)c1 [Compound 6] | 60.81 | 46.76 | 34.01 | 29.82 | 1.67 [19] | 2.68 [19] |  |  |  |  |
| O=c1c(C(F)(F)F)nnc2n1CCN2c1ccccc1 [Compound 7] | 14.11 | 12.22 | 10.72 | 10.02 | 0.94 [19] | 1.92 [19] | safer for the early life stages of Danio rerio than pemetrexed |  |  |  |
| Cc1ccc(N2CCn3c2nnc(C(F)(F)F)c3=O)cc1 [Compound 9] | 25.67 | 21.44 | 17.64 | 16.14 | 1.25 [19] | 2.16 [19] |  |  |  |  |
| COc1ccccc1N1CCn2c1nnc(C(F)(F)F)c2=O [Compound 10] | 5.89 | 5.40 | 5.04 | 4.79 | 0.67 [19] | 1.65 [19] |  | clearly higher antiproliferative effects in cancer cells than in normal cells |  |  |
| O=c1c(C(F)(F)F)nnc2n1CCN2c1ccccc1Cl [Compound 11] | 10.61 | 9.36 | 8.27 | 7.66 | 0.88 [19] | 1.86 [19] |  | clearly higher antiproliferative effects in cancer cells than in normal cells |  |  |
| O=c1c(C(F)(F)F)nnc2n1CCN2c1cccc(Cl)c1 [Compound 12] | 36.90 | 29.09 | 22.17 | 19.83 | 1.66 [19] | 2.43 [19] |  |  |  |  |
| O=c1c(C(F)(F)F)nnc2n1CCN2c1ccc(Cl)cc1 [Compound 13] | 41.71 | 32.28 | 25.32 | 22.45 | 1.58 [19] | 2.40 [19] |  |  |  |  |
| O=c1c(C(F)(F)F)nnc2n1CCN2c1ccc(Cl)c(Cl)c1 [Compound 14] | 59.61 | 44.28 | 32.68 | 28.56 | 2.29 [19] | 2.96 [19] |  |  |  |  |
| CCOC(=O)c1nnc2n(c1=O)CCN2c1ccccc1 [Compound 15] | 2.09 | 1.90 | 1.81 | 1.84 |  |  |  |  | 0.48 | 1.21 |
| CCOC(=O)c1nnc2n(c1=O)CCN2c1ccc(C)cc1 [Compound 16] | 4.49 | 4.04 | 3.81 | 3.75 |  |  |  |  | 1.93 | 2.80 |
| CCOC(=O)c1nnc2n(c1=O)CCN2c1cccc(Cl)c1 [Compound 17] | 10.12 | 8.72 | 8.00 | 8.00 |  |  |  | clearly higher antiproliferative effects in cancer cells than in normal cells | 1.73 | 2.62 |
| CCOC(=O)c1nnc2n(c1=O)CCN2c1ccc(Cl)cc1 [Compound 18] | 9.94 | 8.48 | 7.53 | 7.75 |  |  |  |  | 1.12 | 1.92 |
| CCOC(=O)c1nnc2n(c1=O)CCN2c1ccc(Cl)c(Cl)c1 [Compound 19] | 24.39 | 18.98 | 14.97 | 14.81 |  |  |  | clearly higher antiproliferative effects in cancer cells than in normal cells | 3.36 | 3.24 |
